Source: patent US6440999B1, “Intimal thickening inhibitory agent” (Chugai Seiyaku Kabushiki Kaisha, priority 1995, dated 2002)

Key:
[1] = tested on: A7r5 cells derived from the aorta of a rat; assay: Inhibition of serum-stimulated proliferation of vascular smooth muscle cells, acid phosphatase activity; type: cell-based; settings: 48 hours after 2% FBS stimulation, n = 3, mean ± SD; for Acid Phosphatase Activity Absorbance (OD405): control 0.867 ± 0.089; for activity at 10 µM / activity at 30 µM / activity at 100 µM: Rattus norvegicus, A7R5, control 100 ± 10
Description: In order to assess the inhibitory effect of the compounds of the present invention on serum-stimulated proliferation of vascular smooth muscle cells in vitro, the compounds of Examples 1, 4, 20, 22, 27, 31, 36, 50, 52, and 58 were tested using A7r5 cells derived from the aorta of a rat (ATCC-CRL-1444).
Using DMEM medium containing 10% FBS, the cells were placed on 96-well microtiter plates with 5×10^3 cells/0.2 ml/ well and then incubated. The medium was exchanged for 2% FBS-containing DMEM medium on the third day and then for 0.2% FBS-containing DMEM medium on the fourth day from the start of the incubation. After 24-hour incubation in the 0.2% FBS-containing DMEM medium, the test compound was added. Each of the test compounds were added to the wells in the form of a solution or suspension in ethanol in an amount of 1 μl/well to final compound concentrations indicated in Table 3 below and the resultant ethanol concentration of 0.5% in each well. After additional 24-hour incubation, the medium was removed, and 0.2 ml of DMEM medium and the test compound were added thereto again, and the cells were stimulated by serum (2% FBS). Forty-eight hours after the stimulation, the acid phosphatase activity in the wells was measured by means of a kit (Abacus Cell Proliferation Kit, available from Clontech Lab. Inc. CA, U.S.A.) and evaluated as an indication of cell proliferation.

[2] = tested on: A7r5 cells derived from the aorta of a rat; assay: Inhibition of serum- or PDGF-stimulated proliferation of vascular smooth muscle cells, [3H]-thymidine uptake; type: cell-based; settings: uptake in 5 hours, n = 3, mean ± SD; for Count by Liquid Scintillation Counter, FBS Stimulation ([3H]-thymidine uptake): 2% FBS, control 42789 ± 1063; for Count by Liquid Scintillation Counter, PDGF Stimulation ([3H]-thymidine uptake): PDGF-BB 4 ng/ml, control 24517 ± 2370
Description: In order to assess the inhibitory effect of a compound of the present invention on serum- or PDGF-stimulated proliferation of vascular smooth muscle cells in vitro, the compound obtained in Example 36 was tested using A7r5 cells derived from the aorta of a rat (ATCC-CRL-1444). Further, the effect was compared with that of α-tocopherol which was reported to have an inhibitory effect on proliferation of vascular smooth muscle cells (see J. Biol. Chem., 266, pp. 6188-6194 (1991)).
Using DMEM medium containing 10% FBS, the cells were placed on 96-well microtiter plates with 5×10^3 cells/0.2 ml/well and then incubated. The medium was exchanged for 2% FBS-containing DMEM medium on the third day and then for 0.2% FBS-containing DMEM medium on the fourth day from the start of the incubation. After 48-hour incubation in the 0.2% FBS-containing DMEM medium, the medium was removed, 0.2 ml of DMEM medium and the test compound were added, and the cells were stimulated with serum (2% FBS) or PDGF (PDGF-BB: human origin, available from Becton Dickinson Labware) (4 ng/ml) to proliferate. The test compound was added to the wells in the form of a solution or suspension in ethanol in amount of 1 μl well to final compound concentrations indicated in Table 2 below and the resultant ethanol concentration of 0.5% in each well. Eight hours after the stimulation, hydroxyurea was added to a final concentration of 1.5 mM to synchronize the cell cycle strictly. After additional 14-hour incubation, the medium containing hydroxyurea was removed and the cells were washed, and DMEM medium, the test compound and the proliferation stimulator were added thereto again. Further, [^3H]-thymidine (1 μCi/well; […]; available from NEN Research) was added. The [^3H]-thymidine uptake in 5 hours was measured as an indication of cell proliferation.

[3] = tested on: rabbit balloon injury models; assay: In vivo effect in intimal thickening model (2), rabbit balloon injury; settings: cholesterol-fed rabbits, 15-week-old, 200 mg/kg oral once a day, four weeks after balloon treatment, mean ± SD
Description: In order to assess the inhibitory effect of the compound of the present invention on intimal thickening in vivo, the compound of Example 36 was tested using rabbit balloon injury models that were different from those used in Test Example 4 in week-age. Further, the effect was compared with that of Probucol which was reported to have an inhibitory effect on intimal thickening in balloon injury models (see Proc. Natl. Acad. Sci., U.S.A., 89, pp 11312-11316 (1992)).
Cholesterol-fed rabbits in groups of seven (JW: CSK male, 15-week-old) were used to prepare rabbit balloon injury models. Briefly, rabbits were fed with a high cholesterol diet (cholesterol content: 1%) for 2 weeks before balloon treatment. The animals were balloon-treated with a balloon catheter (4 French, available from Baxter) under anesthesia to peel the aortic intima 5 times. The animals were orally administered with the compound which was suspended in a 1% CMC solution (200 mg/kg). On the other hand, control animals were orally administered with a 1% CMC solution without the compound. The administrations were performed once a day from 1 week before the balloon treatment until the day before the dissection for evaluation. In order to evaluate the degree of balloon injury, a balloon-nontreated group (3 animals) was prepared.
After four weeks from the balloon treatment, specimens were taken from the aorta, stained with Elastica van Geison, and analyzed under an optical microscope. The image was processed to measure the thickness and area of the thickened intima. Averages of the thickness and area were obtained for each individual animal. The animals which died after the operation and those having a serum cholesterol level of 3500 mg/dl or higher were excluded from the measurement. The number of animals used for the evaluation was 4 or 5 per group.

Structure (SMILES) | Acid Phosphatase Activity Absorbance (OD405) ([1]; 10 μM) | Acid Phosphatase Activity Absorbance (OD405) ([1]; 30 μM) | activity at 10 µM ([1]; 10 μM) [%] | activity at 30 µM ([1]; 30 μM) [%] | other results
CC1(C)Cc2c(cc(C(C)(C)C)c(O)c2C(C)(C)C)O1 [Example 4, 4,6-Di-t-butyl-5-hydroxy-2,2-dimethyl-2,3-dihydrobenzofuran] | 0.606 ± 0.020 | 0.062 ± 0.026 | 70 ± 2 | 7 ± 3 | 
CCCOc1cc(C(C)(C)C)c(O)c(C(C)(C)C)c1C [Example 31, 2,6-Di-t-butyl-3-methyl-4-propyloxyphenol] | 0.756 ± 0.025 |  | 87 ± 3 |  | Acid Phosphatase Activity Absorbance (OD405) ([1]; 100 μM): 0.600 ± 0.102; activity at 100 µM ([1]; 100 μM): 69 ± 12%
CC(C)(C)c1cc2c(c(C(C)(C)C)c1O)CC1(CCOCC1)O2 [Example 22, 4,6-Di-t-butyl-5-hydroxy-2,3-dihydrobenzofuran-2-spiro-4′-tetrahydropyran] | 0.875 ± 0.013 |  | 101 ± 1 |  | Acid Phosphatase Activity Absorbance (OD405) ([1]; 100 μM): 0.777 ± 0.062; activity at 100 µM ([1]; 100 μM): 90 ± 7%
CC(C)(C)c1cc2occc2c(C(C)(C)C)c1O [Example 27, 4,6-Di-t-butyl-5-hydroxybenzofuran] | 0.553 ± 0.033 | 0.225 ± 0.064 | 64 ± 4 | 26 ± 7 | 
CC1(CO)Cc2c(cc(C(C)(C)C)c(O)c2C(C)(C)C)O1 (stereo not shown) [Example 48, 4,6-Di-t-butyl-5-hydroxy-2-hydroxymethyl-2-methyl-2,3-dihydrobenzofuran] |  |  |  |  | melting point: 126 to 128 °C
CC(C)(C)c1cc2c(c(C(C)(C)C)c1O)CCO2 [Example 1, 4,6-Di-t-butyl-5-hydroxy-2,3-dihydrobenzofuran] | 0.727 ± 0.032 |  | 84 ± 4 |  | Acid Phosphatase Activity Absorbance (OD405) ([1]; 100 μM): 0.288 ± 0.073; activity at 100 µM ([1]; 100 μM): 33 ± 8%
CC(C)(C)c1cc2c(c(C(C)(C)C)c1O)CC1(CCCCCC1)O2 [Example 20, 4,6-Di-t-butyl-5-hydroxy-2,3-dihydrobenzofuran-2-spiro-1′-cycloheptane] | 0.472 ± 0.031 | 0.105 ± 0.027 | 54 ± 4 | 12 ± 3 | 
CCCCCC1(CCCCC)Cc2c(cc(C(C)(C)C)c(O)c2C(C)(C)C)S1 [Example 50, 4,6-Di-t-butyl-5-hydroxy-2,2-di-n-pentyl-2,3-dihydrobenzothiophene] | 0.699 ± 0.131 | 0.146 ± 0.026 | 81 ± 15 | 17 ± 3 | 
Cc1c(C)c2c(c(C)c1O)CC[C@@](C)(CCC[C@H](C)CCC[C@H](C)CCCC(C)C)O2 [α-Tocopherol, α-tocopherol, reference compound] |  |  |  |  | Count by Liquid Scintillation Counter, FBS Stimulation ([3H]-thymidine uptake) ([2]; 30 μM): 28058 ± 3912 CPM; Count by Liquid Scintillation Counter, PDGF Stimulation ([3H]-thymidine uptake) ([2]; 30 μM): 12493 ± 2978 CPM; Count by Liquid Scintillation Counter, FBS Stimulation ([3H]-thymidine uptake) ([2]; 100 μM): 25706 ± 4160 CPM; Count by Liquid Scintillation Counter, PDGF Stimulation ([3H]-thymidine uptake) ([2]; 100 μM): 12159 ± 2362 CPM
CC(C)(Sc1cc(C(C)(C)C)c(O)c(C(C)(C)C)c1)Sc1cc(C(C)(C)C)c(O)c(C(C)(C)C)c1 [Probucol, reference compound] |  |  |  |  | Area of Intima ([3]; control 1.32 ± 0.22): 0.97 ± 0.28 mm²; Thickness of Intima ([3]; control 119 ± 19): 92 ± 17 μm
CC1(C)Cc2c(cc(C(C)(C)C)c(O)c2C(C)(C)C)S1 [Example 52, 4,6-Di-t-butyl-5-hydroxy-2,2-dimethyl-2,3-dihydrobenzothiophene] | 0.690 ± 0.071 | 0.043 ± 0.008 | 80 ± 8 | 5 ± 1 | 
CC(C)(C)c1cc2c(c(C(C)(C)C)c1O)CC1(CCCCC1)S2 [Example 58, 4,6-Di-t-butyl-5-hydroxy-2,3-dihydrobenzothiophene-2-spiro-1′-cyclohexane] | 0.417 ± 0.125 | 0.045 ± 0.006 | 48 ± 14 | 5 ± 1 | 
